US20240368156A1, “2-AZABICYCLO[2.2.1]HEPTANE KRAS INHIBITORS” (INCYTE CORPORATION, priority 2023, published 2024)

Legend:
KRAS G12V = KRAS G12V (Homo sapiens, UniProt P01116, G12V); assay: GDP-GTP exchange assay (bodipy-GDP/GppNHp, SOS1), KRAS G12V; format: biochemical; details: 2.5 nM bodipy-loaded KRAS G12V, 3 h incubation after adding GppNHp-SOS1; for certain compounds the most potent isomer is quoted; read-out: KRAS_G12V exchange assay IC50
Experimental: (§1) The inhibitor potency of the exemplified compounds was determined in a fluorescence based guanine nucleotide exchange assay, which measures the exchange of bodipy-GDP (fluorescently labeled GDP) for GppNHp (Non-hydrolyzable GTP analog) to generate the active state of KRAS in the presence of SOS1 (guanine nucleotide exchange factor). Inhibitors were serially diluted in DMSO and a volume of 0.1 μL was transferred to the wells of a black low volume 384-well plate. 5 µL/well volume of bodipy-loaded KRAS G12D diluted to 2.5 nM in assay buffer (25 mM Hepes pH 7.5, 50 mM NaCl, 10 mM MgCl2 and 0.01% Brij-35) was added to the plate and pre-incubated with inhibitor for 4 h at r.t. Appropriate controls (enzyme with no inhibitor or with a G12D inhibitor) were included on the plate. The exchange was initiated by the addition of a 5 μL/well volume containing 1 mM GppNHp and 300 nM SOS1 in assay buffer. The 10 μL/well reaction concentration of the bodipy-loaded KRAS G12D, GppNHp, and SOS1 were 2.5 nM, 500 μM, and 150 nM, respectively. The reaction plates were incubated at r.t. for 2 h, a time estimated for complete GDP-GTP exchange in the absence of inhibitor. For the KRAS G12V mutant, similar guanine nucleotide exchange assays were used with 2.5 nM as final concentration for the bodipy loaded KRAS proteins and 3 h incubation after adding GppNHp-SOS1 mixture. A cyclic peptide described to selectively bind G12D mutant (Sakamoto et al., BBRC 484.3 (2017), 605-611) or internal compounds with confirmed binding were used as positive controls in the assay plates. Fluorescence intensities were measured on a PheraStar plate reader instrument (BMG Labtech) with excitation at 485 nm and emission at 520 nm.
(§2) Either GraphPad prism or Genedata Screener SmartFit was used to analyze the data. The IC50 values were derived by fitting the data to a four parameter logistic equation producing a sigmoidal dose-response curve with a variable Hill coefficient.
(§3) The symbol “†” indicates IC50≤100 nM, “††” indicates IC50>100 nM but ≤1 μM; and “†††” indicates IC50 is >1 μM but ≤5 μM, “††††” indicates IC50 is >5 µM but ≤10 μM. “NA” indicates IC50 not available.

KRAS G12D = KRAS G12D (Homo sapiens, UniProt P01116, G12D); assay: GDP-GTP exchange assay (bodipy-GDP/GppNHp, SOS1), KRAS G12D; format: biochemical; details: 2.5 nM bodipy-loaded KRAS G12D, 4 h pre-incubation, 2 h reaction with GppNHp and SOS1; for certain compounds the most potent isomer is quoted; read-out: KRAS_G12D exchange assay IC50
KRAS G12D, sequence (P01116 1-188 isoform P01116-2 G12D): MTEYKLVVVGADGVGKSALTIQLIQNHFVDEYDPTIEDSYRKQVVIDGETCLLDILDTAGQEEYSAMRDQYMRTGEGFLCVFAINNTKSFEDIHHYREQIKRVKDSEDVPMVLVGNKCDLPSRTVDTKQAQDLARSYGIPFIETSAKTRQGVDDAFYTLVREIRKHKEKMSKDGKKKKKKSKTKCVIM
Experimental: as §1, §2, §3

KRAS G12V, sequence (P01116 1-188 isoform P01116-2 G12V): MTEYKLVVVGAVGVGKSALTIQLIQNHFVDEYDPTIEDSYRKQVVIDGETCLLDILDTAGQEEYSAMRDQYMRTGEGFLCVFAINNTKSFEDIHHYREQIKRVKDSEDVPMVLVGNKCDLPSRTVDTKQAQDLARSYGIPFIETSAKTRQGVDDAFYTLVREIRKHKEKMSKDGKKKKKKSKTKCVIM

SMILES	IC50 (KRAS G12V) [nM]	IC50 (KRAS G12D) [nM]
Cc1nc2c(F)c(-c3cccc(Cl)c3Cl)c(CCC#N)cc2c2c1cc([C@H]1[C@H]3C[C@H](C[C@@H]3C(F)F)N1C(=O)C1(F)CC1)n2[C@H]1[C@H]2CN[C@@H]1C2 (atropisomer, axis not shown; (Ra)) [Example 44, 3-((Ra)-1-((1R,4R,5S)-2-Azabicyclo[2.1.1]hexan-5-yl)-7-(2,3-dichlorophenyl)-2-((1R,3R,4S,5S)-5-(difluoromethyl)-2-(1-fluorocyclopropane-1-carbonyl)-2-azabicyclo[2.2.1]heptan-3-yl)-6-fluoro-4-methyl-1H-pyrrolo[3,2-c]quinolin-8-yl)propanenitrile]	≤ 100	≤ 100
COC(=O)N1[C@@H]2C[C@@H]([C@@H](OC(F)F)C2)[C@@H]1c1cc2c(C)nc3c(F)c(-c4cccc(Cl)c4Cl)c(CCC#N)cc3c2n1[C@H]1[C@H]2CN[C@@H]1C2 (atropisomer, axis not shown; (Ra)) [Example 39, Methyl (1R,3R,4R,5S)-3-((Ra)-1-((1R,4R,5S)-2-azabicyclo[2.1.1]hexan-5-yl)-8-(2-cyanoethyl)-7-(2,3-dichlorophenyl)-6-fluoro-4-methyl-1H-pyrrolo[3,2-c]quinolin-2-yl)-5-(difluoromethoxy)-2-azabicyclo[2.2.1]heptane-2-carboxylate]	≤ 100	≤ 100
CO[C@@H]1C[C@H]2C[C@@H]1[C@H](c1cc3c(C)nc4c(F)c(-c5cccc(Cl)c5Cl)c(CCC#N)cc4c3n1C1[C@H]3CN[C@@H]1C3)N2C(=O)C1CC1 (stereo partly drawn) [Example 22, 3-(1-((1R,4R)-2-azabicyclo[2.1.1]hexan-5-yl)-2-((1R,3R,4R,5R)-2-(cyclopropanecarbonyl)-5-methoxy-2-azabicyclo[2.2.1]heptan-3-yl)-7-(2,3-dichlorophenyl)-6-fluoro-4-methyl-1H-pyrrolo[3,2-c]quinolin-8-yl)propanenitrile]	100 to 1000	100 to 1000
Cc1nc2c(F)c(-c3cccc(Cl)c3Cl)c(CCC#N)cc2c2c1cc([C@H]1[C@H]3C[C@H](C[C@@H]3F)N1C(=O)C1CC1)n2[C@H]1[C@H]2CN[C@@H]1C2 (atropisomer, axis not shown; (Ra)) [Example 2, 3-((Ra)-1-((1R,4R,5S)-2-Azabicyclo[2.1.1]hexan-5-yl)-2-((1R,3R,4R,5S)-2-(cyclopropanecarbonyl)-5-fluoro-2-azabicyclo[2.2.1]heptan-3-yl)-7-(2,3-dichlorophenyl)-6-fluoro-4-methyl-1H-pyrrolo[3,2-c]quinolin-8-yl)propanenitrile]	≤ 100	≤ 100
Cc1nc2c(F)c(-c3cccc(Cl)c3Cl)c(CCC#N)cc2c2c1cc([C@H]1[C@@H]3CC[C@@H](C3)N1C(=O)C1CC1)n2[C@H]1[C@H]2CN[C@@H]1C2 [Example 11, 3-(1-((1R,4R,5S)-2-azabicyclo[2.1.1]hexan-5-yl)-2-((1S,3R,4R)-2-(cyclopropanecarbonyl)-2-azabicyclo[2.2.1]heptan-3-yl)-7-(2,3-dichlorophenyl)-6-fluoro-4-methyl-1H-pyrrolo[3,2-c]quinolin-8-yl)propanenitrile]	≤ 100	≤ 100
Cc1nc2c(F)c(-c3cccc(Cl)c3Cl)c(CCC#N)cc2c2c1cc([C@H]1[C@H]3C[C@H](C[C@@H]3F)N1C(=O)C1CC1)n2C1[C@H]2CN[C@@H]1C2 (stereo partly drawn) [Example 20, 3-(1-((1R,4R)-2-azabicyclo[2.1.1]hexan-5-yl)-2-((1R,3R,4R,5S)-2-(cyclopropanecarbonyl)-5-fluoro-2-azabicyclo[2.2.1]heptan-3-yl)-7-(2,3-dichlorophenyl)-6-fluoro-4-methyl-1H-pyrrolo[3,2-c]quinolin-8-yl)propanenitrile]	≤ 100	≤ 100
Cc1nc2c(F)c(-c3cccc(Cl)c3Cl)c(CCC#N)cc2c2c1cc([C@H]1[C@H]3CC[C@H](C3)N1C(=O)C1CC1)n2C1C2CNC1C2 (stereo partly drawn) [Example 25, 3-(1-(2-azabicyclo[2.1.1]hexan-5-yl)-2-((1R,3R,4S)-2-(cyclopropanecarbonyl)-2-azabicyclo[2.2.1]heptan-3-yl)-7-(2,3-dichlorophenyl)-6-fluoro-4-methyl-1H-pyrrolo[3,2-c]quinolin-8-yl)propanenitrile]	5000 to 10000	1000 to 5000
Cc1nc2c(F)c(-c3cccc(Cl)c3Cl)c(CCC#N)cc2c2c1cc([C@H]1[C@H]3C[C@H](C[C@@H]3OC(F)F)N1C(=O)C1(F)CC1)n2[C@H]1[C@H]2CN[C@@H]1C2 (atropisomer, axis not shown; (Ra)) [Example 10, 3-((Ra)-1-((1R,4R,5S)-2-Azabicyclo[2.1.1]hexan-5-yl)-7-(2,3-dichlorophenyl)-2-((1R,3R,4R,5S)-5-(difluoromethoxy)-2-(1-fluorocyclopropane-1-carbonyl)-2-azabicyclo[2.2.1]heptan-3-yl)-6-fluoro-4-methyl-1H-pyrrolo[3,2-c]quinolin-8-yl)propanenitrile]	≤ 100	≤ 100
CNC(=O)c1ccc(-c2nc3c(F)c(-c4cccc(Cl)c4Cl)c(CCC#N)cc3c3c2cc([C@H]2[C@@H]4CC[C@@H](C4)N2C(=O)C2CC2)n3[C@H]2[C@H]3CN[C@@H]2C3)cc1F [Example 14, 4-(1-((1R,4R,5S)-2-azabicyclo[2.1.1]hexan-5-yl)-8-(2-cyanoethyl)-2-((1S,3R,4R)-2-(cyclopropanecarbonyl)-2-azabicyclo[2.2.1]heptan-3-yl)-7-(2,3-dichlorophenyl)-6-fluoro-1H-pyrrolo[3,2-c]quinolin-4-yl)-2-fluoro-N-methylbenzamide]	≤ 100	≤ 100
Cc1nc2c(F)c(-c3cccc(Cl)c3Cl)c(CCC#N)cc2c2c1cc([C@H]1[C@H]3C[C@H](C[C@@H]3OC(F)F)N1C(=O)C1CC1)n2[C@H]1[C@H]2CN[C@@H]1C2 (atropisomer, axis not shown; (Ra)) [Example 7, 3-((Ra)-1-((1R,4R,5S)-2-Azabicyclo[2.1.1]hexan-5-yl)-2-((1R,3R,4R,5S)-2-(cyclopropanecarbonyl)-5-(difluoromethoxy)-2-azabicyclo[2.2.1]heptan-3-yl)-7-(2,3-dichlorophenyl)-6-fluoro-4-methyl-1H-pyrrolo[3,2-c]quinolin-8-yl)propanenitrile]	≤ 100	≤ 100
Cc1nc2c(F)c(-c3cccc(Cl)c3Cl)c(CCC#N)cc2c2c1cc([C@H]1[C@H]3C[C@H](C[C@@H]3Oc3cccnc3)N1C(=O)C1CC1)n2[C@H]1[C@H]2CN[C@@H]1C2 (atropisomer, axis not shown; (Ra)) [Example 5, 3-((Ra)-1-((1R,4R,5S)-2-Azabicyclo[2.1.1]hexan-5-yl)-2-((1R,3R,4R,5S)-2-(cyclopropanecarbonyl)-5-(pyridin-3-yloxy)-2-azabicyclo[2.2.1]heptan-3-yl)-7-(2,3-dichlorophenyl)-6-fluoro-4-methyl-1H-pyrrolo[3,2-c]quinolin-8-yl)propanenitrile]	≤ 100	≤ 100
Cc1nc2c(F)c(-c3cccc(Cl)c3Cl)c(CCC#N)cc2c2c1cc([C@H]1[C@H]3C[C@H](C[C@@H]3OC(F)(F)F)N1C(=O)C1CC1)n2[C@H]1[C@H]2CN[C@@H]1C2 (atropisomer, axis not shown; (Ra)) [Example 41, 3-((Ra)-1-((1R,4R,5S)-2-Azabicyclo[2.1.1]hexan-5-yl)-2-((1R,3R,4R,5S)-2-(cyclopropanecarbonyl)-5-(trifluoromethoxy)-2-azabicyclo[2.2.1]heptan-3-yl)-7-(2,3-dichlorophenyl)-6-fluoro-4-methyl-1H-pyrrolo[3,2-c]quinolin-8-yl)propanenitrile]	≤ 100	≤ 100
CO[C@H]1C[C@H]2C[C@@H]1[C@H](c1cc3c(C)nc4c(F)c(-c5cccc(Cl)c5Cl)c(CCC#N)cc4c3n1[C@H]1[C@H]3CN[C@@H]1C3)N2C(=O)C1CC1 [Example 15, 3-(1-((1R,4R,5S)-2-azabicyclo[2.1.1]hexan-5-yl)-2-((1R,3R,4R,5S)-2-(cyclopropanecarbonyl)-5-methoxy-2-azabicyclo[2.2.1]heptan-3-yl)-7-(2,3-dichlorophenyl)-6-fluoro-4-methyl-1H-pyrrolo[3,2-c]quinolin-8-yl)propanenitrile]	≤ 100	≤ 100
C[C@@H](O)c1nc2c(F)c(-c3cccc(Cl)c3Cl)c(CCC#N)cc2c2c1cc([C@H]1[C@H]3C[C@H](C[C@@H]3OC(F)F)N1C(=O)C1(F)CC1)n2[C@H]1[C@H]2CN[C@@H]1C2 (single isomer, unassigned) [Example 37]	≤ 100	≤ 100
